The text below walks through data of PMC8235216, “Structural Evidence of Active Site Adaptability towards Different Sized Substrates of Aromatic Amino Acid Aminotransferase from Psychrobacter Sp. B6” (Materials, 2021).

SMILES strings stand for the structures.

Common to all, as to type: binding
Assay [1] deals with T1, PsyArAT (psychrophilic aromatic amino acid aminotransferase) (Psychrobacter sp. B6, UniProt C7E5X4).
T1 construct: full-length Met1-Asp398, homodimer; E. coli; FOH/YOH/DOH complexes: protein as described previously; new construct: codon-optimised gene in pMCSG7, His6 tag removed by TEV, ArcticExpress (DE3)
Nature of the assay: X-ray crystal structure (co-crystallisation). The settings on record: active site, competitive inhibitor; both monomers; 20-fold molar excess of ligand; pH 7.5; partial PLP occupancy.

The target in assay [2] is T1, PsyArAT (psychrophilic aromatic amino acid aminotransferase). Nature of the assay: X-ray crystal structure (crystals grown in DL-malic acid). The settings on record: active site, competitive inhibitor; 2.1 M DL-malic acid pH 7.0, 0.1 M Tris-HCl pH 7.5.
For assay [3] the target is unchanged. Kind of assay: X-ray crystal structure (soaking of native crystals). The settings on record: active site, competitive inhibitor; bound in monomers A and C only; 10-fold molar excess of ligand, 5-fold PLP; pH 7.5.

T1 sequence (C7E5X4 entry or part of it): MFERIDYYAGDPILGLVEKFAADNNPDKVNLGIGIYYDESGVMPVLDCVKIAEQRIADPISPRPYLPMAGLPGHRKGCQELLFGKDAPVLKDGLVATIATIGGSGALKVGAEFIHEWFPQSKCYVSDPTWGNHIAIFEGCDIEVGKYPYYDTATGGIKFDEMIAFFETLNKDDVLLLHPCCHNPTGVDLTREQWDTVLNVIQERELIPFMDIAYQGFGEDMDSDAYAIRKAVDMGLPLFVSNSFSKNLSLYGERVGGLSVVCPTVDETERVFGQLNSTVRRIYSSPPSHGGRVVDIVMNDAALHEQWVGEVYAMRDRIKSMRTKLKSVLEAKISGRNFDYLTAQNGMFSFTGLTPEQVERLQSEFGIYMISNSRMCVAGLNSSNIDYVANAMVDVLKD

Consider `O=C(O)[C@@H](O)Cc1ccccc1` [FOH, 3-phenyllactic acid], for which the “X-ray crystal structure (co-crystallisation)” value in assay [1] is given as “carboxyl group of FOH creates two parallel hydrogen bonds with the guanidine group of Arg374”.

With `O=C(O)[C@@H](O)Cc1ccc(O)cc1` [YOH, 3-(4-hydroxyphenyl)-lactic acid], the “X-ray crystal structure (co-crystallisation)” value in assay [1] is given as “interaction of the YOH inhibitor with the residues forming the active site of subunit A”. In the case of `O=C(O)C[C@H](O)C(=O)O` [DOH, L-malic acid], the “X-ray crystal structure (crystals grown in DL-malic acid)” value in assay [2] was “only L-malic acid (DOH) was bound in the active center”. On to `O=C(O)[C@@H](O)Cc1c[nH]c2ccccc12` [WOH, 3-indolelactic acid], for which the “X-ray crystal structure (soaking of native crystals)” value in assay [3] was “The carboxylic group of the WOH is planar to the Arg374 guanidine group”.
